Experimental data taken from patent US10472326B2, “PQSR modulators” (HELMHOLTZ-ZENTRUM FÜR INFEKTIONSFORSCHUNG GMBH, priority 2014, dated 2019).
Entries after “also recorded” stand apart in the source; their conditions may differ. Read-outs that look alike come from different tables or passages of the source. Marks after values point to notes of the source that are not given here.

Legend:
P. aeruginosa PA14 [1] = conditions: strain not given, cited from earlier work
Pseudomonas aeruginosa [2] = conditions: cited from earlier work
P. aeruginosa infection [3] = conditions: cited from earlier work
P. aeruginosa infection [4] = conditions: cited from earlier work; remark: listed apart in the source
P. aeruginosa biofilm = conditions: background statement; cited from earlier work
P. aeruginosa PA14 [5] = conditions: in cellulo; ref. [20]; strain not given; read-out: IC50, inhibition of virulence factor pyocyanin production; cited from earlier work
P. aeruginosa PA14 [6] = experiment: Pyocyanin assay; type: cell-based; conditions: for Reduction of Pyocyanin: PA14
Protocol: For analysis of pyocyanin formation, cultivation procedure was the same as for HHQ determination with the exception of using PPGAS medium. Pyocyanin produced by PA14 was quantified using the method of Essar et al. with some modifications, as described in detail by Klein et al.. Briefly, 900 μL of each culture were extracted with 900 μL of chloroform and 800 μL of the organic phase re-extracted with 250 μL of 0.2 M HCl. OD520 was measured in the aqueous phase using FLUOstar Omega (BMG Labtech, Ortenberg, Germany). For each sample, cultivation and sample work-up were performed in triplicates. Inhibition values of pyocyanin formation were normalized to OD600.

PqsR = molecular target: T1, PqsR (Pseudomonas aeruginosa, UniProt Q9I4X0); experiment: cell-based; conditions: read-out: Inhibition of PqsR stimulation induced by 50 nM PQS in the presence of test compd. (full inhibition = 1.00)
T1 construct: expressed in transfected cells; host or cells: E. coli DH5α carrying plasmid pEAL08-2
T1 sequence (Q9I4X0 whole entry): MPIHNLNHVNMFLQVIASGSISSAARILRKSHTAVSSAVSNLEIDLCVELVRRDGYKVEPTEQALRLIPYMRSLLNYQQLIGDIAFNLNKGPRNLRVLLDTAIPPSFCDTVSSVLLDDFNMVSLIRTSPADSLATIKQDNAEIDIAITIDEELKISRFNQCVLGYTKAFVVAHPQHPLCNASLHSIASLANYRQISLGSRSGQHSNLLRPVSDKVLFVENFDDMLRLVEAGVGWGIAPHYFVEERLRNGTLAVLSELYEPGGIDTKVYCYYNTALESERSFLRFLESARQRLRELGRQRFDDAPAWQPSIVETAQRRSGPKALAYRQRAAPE
Protocol: The ability of the compounds to either stimulate or antagonize the PqsR-dependent transcription was analysed as previously described using a β-galactosidase reporter gene assay in E. coli expressing PqsR. Briefly, a culture of E. coli DH5α cells containing the plasmid pEAL08-2, which encodes PqsR under the control of the tac promoter and the β-galactosidase reporter gene lacZ controlled by the pqsA promoter, were co-incubated with test compound. Antagonistic effects of compounds were assayed in the presence of 50 nM PQS. After incubation, β-galactosidase activity was measured spectralphotometrically at OD420 nm using POLARstar Omega (BMG Labtech, Ortenberg, Germany) and expressed as percent stimulation of controls. For the determination of IC50 values, compounds were tested at least at eight different concentrations.

P. aeruginosa PA14 [7] = experiment: Determination of extracellular PQS levels; type: cell-based; conditions: compd. at 15 μM
Protocol: Quantification of PQS produced by P. aeruginosa PA14 was performed according to the method of Maurer et al.. For each sample, cultivation and sample work-up were performed in triplicates. Inhibition values of PQS formation were normalized to OD600.

P. aeruginosa PA14 [8] = experiment: Biofilm growth assay, PA14; type: cell-based; conditions: added to 24 h old biofilms, final concentration 100 μM
Protocol: Static biofilms at the bottom of 96 well microtiter plates were grown with small modifications as previously described. In brief, overnight P. aeruginosa LB cultures of PA14 were adjusted to an OD600 of 0.002 with fresh medium and transferred into a half-area 96 well μClear plate (Greiner Bio-One, 100 μL/well). The plate was covered with an air-permeable foil and incubated at 37° C. in a chamber with humid atmosphere. After 24 h, a staining solution including Syto9 and propidium iodide (LIVE/DEAD BacLight Bacterial Viability kit, Molecular Probes/Invitrogen) and the test compound solved in DMSO was added to the biofilms (final concentration 100 μM, 1% DMSO (v/v)) and biofilms were further incubated for 24 h at 37° C. After in total 48 h, biofilm stacks were acquired in the center of each well (step size: 3 μm) using an automated confocal microscope (TCS SP8, Leica Microsystems) equipped with an ×40/1.10 water objective. The acquired image stacks were processed and analyzed with a customized analysis solution for the Developer XD2 (Definiens) based on a previously described algorithm. 3D-projections of the biofilms are visualized with the software IMARIS (version 7.6.5, Bitplane).

clinical isolate MHH9639 = experiment: Biofilm growth assay, clinical isolate MHH9639; type: cell-based, P. aeruginosa; conditions: added to 24 h old biofilms, final concentration 100 μM
Pseudomonas aeruginosa [9] = conditions: cited from earlier work; remark: listed apart in the source

Structure (SMILES)	inhibition at 0.05 µM (PqsR) [%]	inhibition at 5 µM (PqsR) [%]	also measured
CCCCCCCc1[nH]c2ccc([N+](=O)[O-])cc2c(=O)c1C(N)=O [2-heptyl-6-nitro-4-oxo-1,4-dihydroquinoline-3-carboxamide]			Reduction of PQS production (P. aeruginosa PA14 [1]; at 15 μM, ref. [20]): 37%; Reduction of HHQ production (Pseudomonas aeruginosa [2]; at 15 μM, ref. [20]): 54%; Protection of larvae from lethal P. aeruginosa infection (P. aeruginosa infection [3]; at 22 nM corresponding to 7.3 ng g^−1 body weight, ref. [20]): full protection; Toxicity in animal model (P. aeruginosa infection [3]; in vivo): no sign of toxicity; Toxicity in animal model (P. aeruginosa infection [4]; in vivo): no sign of toxicity; Protection of nematodes from lethal P. aeruginosa infection (P. aeruginosa infection [4]; ref. [20]): strong protection; Inhibition of biofilm formation (P. aeruginosa biofilm): not being able to inhibit biofilm formation; IC50 (P. aeruginosa PA14 [5]): 2 µM
CCCCCCCc1[nH]c2ccc([N+](=O)[O-])cc2c(=O)c1CO [Compound 1, 2-heptyl-3-(hydroxymethyl)-6-nitroquinolin-4(1H)-one]	45	100	Reduction of Pyocyanin (P. aeruginosa PA14 [6]; compd. at 15 μM): 83%; Reduction of PQS (P. aeruginosa PA14 [7]): 33%
CCCCCCCc1[nH]c2ccc([N+](=O)[O-])cc2c(=O)c1C(=O)OCC [Compound 2, ethyl 2-heptyl-6-nitro-4-oxo-1,4-dihydroquinoline-3-carboxylate]	-8	20	
CCOCCCCc1[nH]c2ccc([N+](=O)[O-])cc2c(=O)c1C(=O)OCC [Compound 3]	2	27	
CCCCCCCc1[nH]c2ccccc2c(=O)c1C(=O)OCC [Compound 4]	18	32	
CCCCCCCc1[nH]c2ccncc2c(=O)c1C(=O)OCC [Compound 5]	24	76	
Nc1cccc(F)c1C(=O)O [Compound 6FABA]			IC50 (Pseudomonas aeruginosa [2]; PqsA inhibitor, refs [14, 16, 22], read-out: IC50, production of signal molecules HHQ and PQS): ~100 µM
CCCCCCCc1[nH]c2ccccc2c(=O)c1CO [Compound 6]	5	28	
CCCCCCCc1[nH]c2ccncc2c(=O)c1C(=O)O [Compound 7, 2-heptyl-4-oxo-1,4-dihydro-1,6-naphthyridine-3-carboxylic acid]	6	20	
CCCCCCCc1[nH]c2ccccc2c(=O)c1C(=O)NO [Compound 8]	15	29	Biofilm formation / biovolume of the biofilms (P. aeruginosa PA14 [8]): strongly inhibited; also recorded: markedly reduced; IC50 (P. aeruginosa PA14 [6]; Pseudomonas aeruginosa, PA14, read-out: IC50, production of the virulence factor pyocyanin): ~12 µM; Reduction of Pyocyanin (P. aeruginosa PA14 [6]; determined at 12.5 μM): 51^e %; Biofilm formation / biovolume of the biofilms (clinical isolate MHH9639): strongly inhibited; also recorded: markedly reduced
CCCCCCCc1[nH]c2ccccc2c(=O)c1[N+](=O)[O-] [Compound 9, 2-heptyl-3-nitroquinolin-4(1H)-one]	14	17	
CCCCCCCc1[nH]c2ccc([N+](=O)[O-])cc2c(=O)c1C(=O)NO [Compound 10, 2-heptyl-N-hydroxy-6-nitro-4-oxo-1,4-dihydroquinoline-3-carboxamide]	30	78	Reduction of Pyocyanin (P. aeruginosa PA14 [6]; determined at 12.5 μM): 57^e %
CCCCCCCc1[nH]c2ccc([N+](=O)[O-])cc2c(=O)c1C(=O)O [Compound 12, 2-heptyl-6-nitro-4-oxo-1,4-dihydroquinoline-3-carboxylic acid]	11	34	
CCCCCCCc1cc(=O)c2cc(C(F)(F)F)ccc2n1C [Ref. 1, 2-heptyl-1-methyl-6-(trifluoromethyl)quinolin-4(1H)-one, reference compound]	31	100	Reduction of Pyocyanin (P. aeruginosa PA14 [6]; compd. at 15 μM): 58%; Reduction of PQS (P. aeruginosa PA14 [7]): 8.9%
CCCCCOCc1cc(=O)c2cc(C(F)(F)F)ccc2[nH]1 [Ref. 4, 2-(Pentyloxymethyl)-6-(trifluoromethyl)quinolin-4(1H)-one, reference compound]	29	100	Reduction of Pyocyanin (P. aeruginosa PA14 [6]; compd. at 15 μM): 29%; Reduction of PQS (P. aeruginosa PA14 [7]): 21%
CCCCCCCc1cc(=O)c2cnccc2[nH]1 [Ref. 9, 2-Heptyl-1,6-naphthyridin-4(1H)-one, reference compound]	8	2	
COC(=O)c1ccccc1N [methyl anthranilate]			PQS formation (P. aeruginosa PA14 [1]; at millimolar concentrations, ref. [12]): inhibit PQS formation; Production of the virulence factor elastase (Pseudomonas aeruginosa [9]): inhibit
